The compounds below were run against Serum paraoxonase/arylesterase 1 (Homo sapiens) (UniProt P27169) (assay: Activity at human recombinant PON1 assessed as hydrolysis of lactone ring at 1 mM by Ellman's method).
Serum paraoxonase/arylesterase 1 (Homo sapiens), sequence (P27169 whole entry): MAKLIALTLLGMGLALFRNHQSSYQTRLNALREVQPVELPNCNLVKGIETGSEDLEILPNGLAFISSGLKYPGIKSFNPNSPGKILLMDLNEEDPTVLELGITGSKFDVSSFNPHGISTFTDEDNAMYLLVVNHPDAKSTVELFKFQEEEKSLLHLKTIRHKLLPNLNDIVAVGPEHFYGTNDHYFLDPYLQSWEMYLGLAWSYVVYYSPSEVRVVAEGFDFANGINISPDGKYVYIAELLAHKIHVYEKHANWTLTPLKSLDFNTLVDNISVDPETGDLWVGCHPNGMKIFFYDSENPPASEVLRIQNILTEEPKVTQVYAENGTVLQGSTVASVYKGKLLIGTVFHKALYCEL

SMILES | Activity [µmol/min/mg]
O=C1Cc2ccccc2O1 | 13.6
CC1=CCC(=O)O1 | 18.3
O=C1C[C@H]2C=CC[C@H]2O1 | 0.83
O=C(O)Cc1ccccc1 | 112
O=C1C[C@@H]2C=CC[C@@H]2O1 | 1.67
O=C1Cc2cc(O)ccc2O1 | 33
C[C@H]1CC(=O)O1 | 3.83

— ChEMBL document CHEMBL1155779, “Characterization of the PON1 active site using modeling simulation, in relation to PON1 lactonase activity” (Bioorg Med Chem, 2008)
